# Key:
# Type in all cases: in vivo
# [1] = system: giant foxtail (Setaria faberi, SETFA); test: Test A pre-emergence, giant foxtail; settings: after 13 d
# How it was run: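 Pots of soil sown, sprayed at day 1 post-sowing: test compound at 15.625/62.5/250 g/ha in acetone:water 1:1 + 0.5% Tween 20. Glasshouse 24/16° C., 14 h light, 65% RH, watering twice daily. Readout: % damage after 13 d.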
# [2] = system: corn (Zea mays, ZEAMX); test: Test A post-emergence, corn; settings: after 13 d
# How it was run: (§1)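 Visual damage at 13 d after treatment, rated from 0 (no damage) to 100 (total damage). Eight-day-old pot-grown plants had been sprayed with 15.625, 62.5 or 250 g/ha of compound in aqueous acetone (50:50) containing 0.5% Tween 20.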
# [3] = system: giant foxtail (Setaria faberi, SETFA); test: Test A post-emergence, giant foxtail; settings: after 13 d
# How it was run: as §1
# [4] = system: redroot pigweed (Amaranthus retroflexus, AMARE); test: Test A post-emergence, redroot pigweed; settings: after 13 d
# How it was run: as §1
# [5] = system: velvetleaf (Abutilon theophrasti, ABUTH); test: Test A post-emergence, velvetleaf; settings: after 13 d
# How it was run: as §1
# [6] = system: maize; test: Test D pre-emergence, maize seed treated with a herbicide safener; settings: ZEAMX, preemergent, 20 DAA
# How it was run: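 Safener-seed-treated maize and wheat were sprayed with an emulsifiable formulation diluted in 0.2% v/v adjuvant solution, one day after sowing (pre-emergence) or after about 12 days (post-emergence). Plants were grown in a glasshouse at 24/18 or 20/16 °C with 16 h light; damage was scored 0–100 at 20 DAA (pre) or 15 d (post).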
structure (smiles),measurement,setting,value
CN1CC(c2cc(C(F)(F)F)n(C)n2)C(C(=O)Nc2cccc(F)c2F)C1=O (racemic) [Compound 3],damage to plant (100=total damage; 0=no damage) SETFA,[1]; Pre-Emergence at 15.625 g/ha,90
same,damage to plant (100=total damage; 0=no damage) SETFA,[1]; Pre-Emergence at 62.5 g/ha,90
same,damage to plant (100=total damage; 0=no damage) SETFA,[1]; Pre-Emergence at 250 g/ha,90
same,damage to plant (100=total damage; 0=no damage) ZEAMX,[2]; Post-Emergence at 15.625 g/ha,0
same,damage to plant (100=total damage; 0=no damage) ZEAMX,[2]; Post-Emergence at 62.5 g/ha,50
same,damage to plant (100=total damage; 0=no damage) ZEAMX,[2]; Post-Emergence at 250 g/ha,80
same,damage to plant (100=total damage; 0=no damage) SETFA,[3]; Post-Emergence at 15.625 g/ha,80
same,damage to plant (100=total damage; 0=no damage) SETFA,[3]; Post-Emergence at 62.5 g/ha,90
same,damage to plant (100=total damage; 0=no damage) SETFA,[3]; Post-Emergence at 250 g/ha,90
same,damage to plant (100=total damage; 0=no damage) AMARE,[4]; Post-Emergence at 15.625 g/ha,0
same,damage to plant (100=total damage; 0=no damage) AMARE,[4]; Post-Emergence at 62.5 g/ha,10
same,damage to plant (100=total damage; 0=no damage) AMARE,[4]; Post-Emergence at 250 g/ha,20
same,damage to plant (100=total damage; 0=no damage) ABUTH,[5]; Post-Emergence at 15.625 g/ha,0
same,damage to plant (100=total damage; 0=no damage) ABUTH,[5]; Post-Emergence at 62.5 g/ha,0
same,damage to plant (100=total damage; 0=no damage) ABUTH,[5]; Post-Emergence at 250 g/ha,0
same,"damage to plant (100=total damage to plant; 0=no damage to plant), ZEAMX",[6]; rate 15,0
same,"damage to plant (100=total damage to plant; 0=no damage to plant), ZEAMX",[6]; rate 30,0
same,"damage to plant (100=total damage to plant; 0=no damage to plant), ZEAMX",[6]; rate 60,0
same,"damage to plant (100=total damage to plant; 0=no damage to plant), ZEAMX",[6]; rate 130,0
same,"damage to plant (100=total damage to plant; 0=no damage to plant), ZEAMX",[6]; rate 250,0
same,"damage to plant (100=total damage to plant; 0=no damage to plant), ZEAMX",[6]; rate 500,0

# Source: US20220281848A1, “PYRAZOLE-SUBSTITUTED PYRROLIDINONES AS HERBICIDES” (FMC Corporation, priority 2019, published 2022)
